Measured values as given in article PMC7795729 (International Journal of Molecular Sciences, 2020).

Assays:
[1] = system: MCF-7 (breast cancer) cells; conditions: for IC50: read-out: IC50, MCF-7 cell viability, MTT, dose-response 1, 2.5, 5, 10, 20 and 25 µM, 24 h, triplicates, n = 3
Protocol: (§1) MCF-7 cells and SH-SY5Y cells were maintained in a culture flask (25 cm^2) with full growth medium DMEM supplemented with 10% FBS and penicillin and streptomycin (final concentration of 100 U/mL and 0.1 mg/mL, respectively) were kept in an incubator at 37 °C and 5% CO2. In the culture flask, the medium was changed at least twice a week, while trypsinization was done at least once a week. Trypsinization was made when there was more than 80% confluence of the monolayer and cell passages used were lower than 35.
(§2) For cytotoxicity evaluation, MCF-7 cells were seeded in 48-well plates at a density of 25 × 10^4 cells per well in a final volume of 250 µL of culture medium. Cells were given 24 h to attach before they were incubated with the compounds in the study. […] H2O and DMSO were used in control, with the volume added being the one used for each concentration.
The MTT assay can be used to assess the cell’s metabolic activity. MTT, a water-soluble compound, is reduced by the complex II of the mitochondrial respiratory chain to a water-insoluble blue formazan product. Only viable cells can metabolize MTT, so the metabolic activity is proportional to the quantity of formazans produced). After a 24 h incubation with the compounds in the study at 37 °C with 5% CO2, the cells were retrieved from the incubator and the medium was discarded. A previously warmed medium with MTT (0.5 mg/mL) was added (200 μL per well) and cells were maintained for 3 h at 37 °C and 5% CO2. Then the medium was aspirated again and DMSO (200 μL) was added to cause cellular lysis and solubilize the formazan crystals. The complete dissolution of the crystals was obtained by putting the plates on a shaking platform for 15 min, protected from light. The absorbance was read at 570 nm in a microplate reader (BioTeK Model Synergy HT, Winooski, VT, USA). Results were expressed as percentage of control cells.

[2] = cellular uptake kinetics; cited from earlier work
Text: In view of the above, we decided to explore how the coupling of Tacrine with the cell-penetrating peptide (CPP) MAP might enhance its anti-cancer effect. CPPs are considered versatile carriers due to their unique ability to transport a wide range of molecules such as proteins, nucleic acids, contrast agents, drugs, and promote their intracellular delivery with limited toxicity. […] MAP (named after “model amphipathic peptide”) is an artificial ...

MCF-7 cells [3] = assay: Cell morphology visualization (phase contrast, Lionheart FX), MCF-7 cells; format: cell-based, human; conditions: 24 h incubation; Tacrine all concentrations tested; MAP 5, 10, 20 and 25 μM; conjugate higher concentrations
Protocol: as §2
(§3) After the treatments, cell morphology and growth were assessed by the contrast phase microscope Lionheart FX (Biotech, VT, USA) with the use of Gen5 software (Biotech, USA). The cell count of MCF-7 cells was assessed by Lionheart FX (Biotech, USA) using Gen5 software (Biotech, USA).

[4] = target: T1, acetylcholinesterase (AChE from the electric eel) (Electrophorus electricus, UniProt O42275); assay: AChE in vitro inhibition assay (Ellman's method); format: biochemical
T1 construct: purchased Sigma-Aldrich
Protocol: Apart from its main function, this enzyme can efficiently hydrolyze a sulfur analogue of acetylcholine–acetylthiocholine. The products of this reaction are acetate and thiocholine, with the latter reacting with the highly reactive DNTB ion, generating a 5-thio-2-nitrobenzoate anion that has a yellow color and it can be detected by measuring the increase of absorbance at 412 nm. 3 mL of assay medium (phosphate buffer pH 7.4 + 150 µL DNTB 0.01 M + 30 µL AChE 2.0 units/mL) was put into cuvettes. The positive control was incubated at 37 °C for 15 min and then was added 150 µL of substrate (acetylthiocholine 0.01 M). […] After the addition of substrate to the assay medium, it was measured the increase in absorbance at 412 nm for 30 s intervals for 5 min (300 s) at 37 °C.
The absorbance was measured in the JENWAY 6300 Spectrophotometer. All conditions were made in triplicates. The value of the initial absorbance was subtracted to the value of the absorbance at 300 s and that was considered as the biological activity.

MCF-7 cells [5] = assay: Analysis of drug interactions (Chou-Talalay, CompuSyn); format: cell-based, human; conditions: n = 3
Protocol: To quantify the interaction of Tacrine and MAP in the conjugate, the dose-effect curves were estimated by the unified theory, introduced by Chou and Talalay using CompuSyn software (ComboSyn, Inc., New York, NY, USA). The dose was plotted on the y-axis as a function of effect level (Fa) on the x-axis to assess the drugs’ behavior. Experiments were conducted in triplicate (n = 3) with three replications.

SH-SY5Y cells = assay: Cell count analysis (Lionheart FX), SH-SY5Y cells; format: cell-based, human; conditions: SH-SY5Y, 1, 2.5, 5 and 10 µM, 24 h incubation, n = 1
MCF-7 cells [6] = assay: Cell count analysis (Lionheart FX), MCF-7 cells; format: cell-based, human; conditions: 24 h incubation, n = 1
Protocol: as §2, §3

[7] = system: SH-SY5Y (neuroblastoma) cells; assay: MTT reduction assay, SH-SY5Y cells; format: cell-based, human
Protocol: as §1
Cells were given 24 h to attach before they were incubated with the compounds in the study. The cells were treated with different concentrations (1, 2.5, 5, and 10 µM) of Tacrine, MAP, and Tacrine-MAP for 24 h with a final volume per well of 200 μL of complete medium. H2O and DMSO were used in control, with the volume added being the one used for each concentration. After the period of incubation, the MTT reduction was performed in both cell lines.
The MTT assay can be used to assess the cell’s metabolic activity. […] Only viable cells can metabolize MTT, so the metabolic activity is proportional to the quantity of formazans produced). […] The absorbance was read at 570 nm in a microplate reader (BioTeK Model Synergy HT, Winooski, VT, USA). Results were expressed as percentage of control cells.

[8] = system: breast tumor cells (MCF-7); conditions: cited from earlier work
Text: Drug combination is a strategy increasingly used in oncology because it allows taking advantage of the maximum therapeutic effect of two or more drugs, by combining different mechanisms of action, while reducing required doses and, consequently, side effects. Drug repurposing is another strategy that allows overcoming the disadvantages of the traditional development of novel anticancer drugs, by searching for new therapeutic uses for drugs already approved for other indications. This allows the reduction of costs related to the development of new drugs while promoting a faster route towards th ...

[9] = summary statement of the abstract

T1 sequence (O42275 24-633): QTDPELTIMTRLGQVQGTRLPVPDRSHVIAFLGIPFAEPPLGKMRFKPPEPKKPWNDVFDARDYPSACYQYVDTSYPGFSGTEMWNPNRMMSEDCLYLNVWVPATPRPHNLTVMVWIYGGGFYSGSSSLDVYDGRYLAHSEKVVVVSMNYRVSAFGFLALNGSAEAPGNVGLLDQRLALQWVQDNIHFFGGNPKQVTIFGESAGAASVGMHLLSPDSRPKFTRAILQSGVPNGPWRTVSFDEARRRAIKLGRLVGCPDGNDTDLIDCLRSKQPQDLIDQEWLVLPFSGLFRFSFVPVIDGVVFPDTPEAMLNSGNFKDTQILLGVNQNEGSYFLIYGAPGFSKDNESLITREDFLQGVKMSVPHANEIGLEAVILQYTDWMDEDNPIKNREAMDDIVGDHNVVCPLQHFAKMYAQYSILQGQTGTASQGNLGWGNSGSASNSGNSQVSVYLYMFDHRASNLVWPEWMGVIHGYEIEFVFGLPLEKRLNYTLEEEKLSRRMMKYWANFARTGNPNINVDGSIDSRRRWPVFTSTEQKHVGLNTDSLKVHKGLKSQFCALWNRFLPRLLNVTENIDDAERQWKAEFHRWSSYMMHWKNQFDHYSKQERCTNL

SMILES	IC50 [1]	Cellular uptake among several CPP (in words) [2]	Morphological changes of MCF-7 cells vs control (in words) (MCF-7 cells [3])	Toxicity to MCF-7 cells (in words) [1, 9]	IC50 [4]	Drug interaction of MAP and Tacrine in decreasing cell viability (MCF-7 cells [5]; higher doses)	Drug interaction of MAP and Tacrine in decreasing cell viability (MCF-7 cells [5]; lower doses of drug and peptide)	Cell count (in words) (SH-SY5Y cells)	Cell count (in words) (MCF-7 cells [6]; MCF-7, 1, 2.5, 5 and 10 µM)	Cell count (in words) (MCF-7 cells [6]; MCF-7, 20 and 25 µM)	Toxicity to SH-SY5Y cells (in words) [7, 9]	MTT reduction compared to control (in words) ([1]; MCF-7, 1, 2.5, 5 and 10 µM, 24 h incubation)	Activity on MCF-7 cells (in words) ([8]; 50 µM, alone)	Cytotoxicity against MCF-7 cells in combination with 5-FU (in words) ([8]; combination with 5-Fluorouracil)	MTT reduction compared to control (in words) ([7]; SH-SY5Y, 1, 2.5, 5 and 10 µM, 24 h incubation)
CC(C)C[C@H](NC(=O)[C@H](C)NC(=O)[C@H](CCCCN)NC(=O)[C@H](CC(C)C)NC(=O)[C@H](C)NC(=O)[C@H](CC(C)C)NC(=O)[C@H](CCCCN)NC(=O)[C@H](CC(C)C)NC(=O)[C@H](C)NC(=O)[C@H](CC(C)C)NC(=O)[C@@H](N)CCCCN)C(=O)N[C@@H](CCCCN)C(=O)N[C@@H](C)C(=O)N[C@@H](C)C(=O)N[C@@H](CC(C)C)C(=O)N[C@@H](CCCCN)C(=O)N[C@@H](CC(C)C)C(=O)N[C@@H](C)C(N)=O [MAP]	2720 nM	fastest cellular uptake													
CC(C)C[C@H](NC(=O)[C@H](C)NC(=O)[C@H](CCCCN)NC(=O)[C@H](CC(C)C)NC(=O)[C@H](C)NC(=O)[C@H](CC(C)C)NC(=O)[C@H](CCCCN)NC(=O)[C@H](CC(C)C)NC(=O)[C@H](C)NC(=O)[C@H](CC(C)C)NC(=O)[C@H](CCCCN)NC(=O)[C@@H](N)Cc1cn(CC(=O)Nc2c3c(nc4ccccc24)CCCC3)nn1)C(=O)N[C@@H](CCCCN)C(=O)N[C@@H](C)C(=O)N[C@@H](C)C(=O)N[C@@H](CC(C)C)C(=O)N[C@@H](CCCCN)C(=O)N[C@@H](CC(C)C)C(=O)N[C@@H](C)C(N)=O [MAP-Tacrine conjugate]	2730 nM		cell damage observed was similar to that caused by MAP alone	highly toxic	6070 nM	additive effect	synergistic effect	significantly decreased cell count	significantly decreased cell count	severe drop in cell count	highly toxic				
Nc1c2c(nc3ccccc13)CCCC2 [Tacrine]			No significant differences in cell morphology					did not affect the number of cells in culture	did not affect the number of cells in culture	no significant effects		no significant differences	antiproliferative activity	increased the cytotoxicity	no significant differences
